Assay results: patent US11591404B2, “Treatment of cancer using a CD123 chimeric antigen receptor” (Novartis AG, priority 2014, dated 2023)
“Also recorded” adds a separate entry of the source.

Assays:
[1] = PK analysis of RAD001 in tumor bearing mice; type: in vivo, NSG mice
Experimental: (§1) RAD001 dosing: A concentrated micro-emulsion of 50 mg equal to 1 mg RAD001 was formulated and then resuspended in D5W (dextrose 5% in water) at the time of dosing. Mice were orally dosed daily (via oral gavage) with 200 μl of the desired doses of RAD001.
PK analysis: Mice were dosed daily with RAD001 starting 7 days post tumor implantation. Dosing groups were as follows: 0.3 mg/kg, 1 mg/kg, 3 mg/kg, and 10 mg/kg. Mice were bled on days 0 and 14 following the first and last dose of RAD001, at the following time points for PK analysis: 15 minutes, 30 minutes, 1 hour, 2 hours, 4 hours, 8 hours, 12 hours, and 24 hours.

[2] = system: humanized CD19 CART cells; test: In vivo proliferation of humanized CD19 CART cells with and without RAD001 dosing; conditions: RAD001 0.003 mg/kg daily with huCTL019
Experimental: Circles denote PBS; squares denote huCTL019; triangles denote huCTL019 with 3 mg/kg RAD001; inverted triangles denote huCTL019 with 0.3 mg/kg RAD001; diamonds denote huCTL019 with 0.03 mg/kg RAD001; and circles denote huCTL019 with 0.003 mg/kg RAD001.

huCAR19 CAR T cells = test: CAR T cell expansion in vivo with RAD001 (FACS); set-up: species or system NSG mice; conditions: lowest doses of RAD001
Experimental: CAR T cell dosing: Mice were administered 5×10^6 CAR T cells 7 days after tumor implantation. Cells were partially thawed in a 37 degree Celsius water bath and then completely thawed by the addition of 1 ml of cold sterile PBS to the tube containing the cells. The thawed cells were transferred to a 15 ml falcon tube and adjusted to a final volume of 10 mls with PBS. The cells were washed twice at 1000 rpm for 10 minutes each time and then counted on a hemocytometer. T cells were then resuspended at a concentration of 50×10^6 CAR T cells per ml of cold PBS and kept on ice until the mice were dosed. The mice were injected intravenously via the tail vein with 100 μl of the CAR T cells for a dose of 5×10^6 CAR T cells per mouse. Eight mice per group were treated either with 100 μl of PBS alone (PBS), or humanized CD19 CAR T cells.
as §1
Based on these doses, huCAR19 CAR T cells were dosed with and without RAD001 to determine the proliferative ability of these cells. The highest dose used was 3 mg/kg based on the levels of RAD001 in the blood 24 hours after dosing. […] Mice were monitored via FACS for T cell expansion.

[3] = system: huCART19 cells cultured with Nalm-6; test: CART proliferation in 4 day co-culture with RAD001; type: cell-based, human; conditions: 0.0032 and 0.016 nM RAD001
Experimental: To evaluate the functionality of CARTs, the T cells are thawed and counted, and viability is assessed by Cellometer. The number of CAR-positive cells in each culture is normalized using non-transduced T cells (UTD). The impact of RAD001 on CARTs was tested in titrations with RAD001, starting at 50 nM. The target cell line used in all co-culture experiments is Nalm-6, a human pre-B cell acute lymphoblastic leukemia (ALL) cell line expressing CD19 and transduced to express luciferase.
For measuring the proliferation of CARTs, T cells are cultured with target cells at a ratio of 1:1. The assay is run for 4 days, when cells are stained for CD3, CD4, CD8 and CAR expression. The number of T cells is assessed by flow cytometry using counting beads as reference.

[4] = system: CAR-expressing, transduced T cells; test: Proliferation of CARTs co-cultured with Nalm-6 cells in the presence of RAD001, 4 days; type: cell-based; conditions: low doses of RAD001, cell culture, 4 days of co-culture
Experimental: CARTs were co-cultured with Nalm-6 cells in the presence of different concentrations of RAD001. The number of CAR-positive CD3-positive T cells (black) and total T cells (gray) was assessed after 4 days of co-culture.

NALM6-luc tumors = test: NALM6-luc tumor growth under daily oral RAD001; type: in vivo, NSG mice; conditions: daily oral dosing of RAD001 alone
Experimental: NALM6-luc cells: The NALM6 human acute lymphoblastic leukemia (ALL) cell line was developed from the peripheral blood of a patient with relapsed ALL. The cells were then tagged with firefly luciferase. These suspension cells grow in RPMI supplemented with 10% heat inactivated fetal bovine serum.
Mice: 6 week old NSG (NOD.Cg-Prkdc^scidIl2rg^tmIWjl/SzJ) mice were received from the Jackson Laboratory (stock number 005557).
Tumor implantation: NALM6-luc cells were grown and expanded in vitro in RPMI supplemented with 10% heat inactivated fetal bovine serum. The cells were then transferred to a 15 ml conical tube and washed twice with cold sterile PBS. NALM6-luc cells were then counted and resuspended at a concentration of 10×10^6 cells per milliliter of PBS. The cells were placed on ice and immediately (within one hour) implanted in the mice. NALM6-luc cells were injected intravenously via the tail vein in a 100 μl volume, for a total of 1×10^6 cells per mouse.
as §1

r/r B-ALL = conditions: cited from earlier work
[5] = system: luciferase-expressing human AML cell lines (MOLM14, MOLM13, U937) or primary AML specimens; test: Human AML xenograft models, T cell termination strategies; type: in vivo, mice; conditions: for elimination of CD123-redirected CAR T cells: alemtuzumab 1 or 5 mg/kg IP, rituximab 10 mg/kg IP; for AML proliferation, antibody alone: non-CART123-treated xenograft models vs AML-only controls
Description: Three termination strategies in human AML xenograft models were examined: (1) T cell ablation with the anti-CD52 antibody alemtuzumab after treatment with 1×10^5-1×10^6 T cells lentivirally-transduced with anti-CD123-41BB-CD3zeta CART123, (2) T cell ablation with the anti-CD20 antibody rituximab after treatment with 1×10^5-1×10^6 CART123 engineered to co-express CD20 (CART123/CD20), and (3) treatment with “biodegradable” anti-CD123 mRNA-electroporated CAR T cells (RNA-CART123). Mice engrafted with luciferase-expressing human AML cell lines (MOLM14, MOLM13, U937) or primary AML specimens (n=3) were treated with CD123-redirected CAR T cells as above. The CD123 CAR construct utilized for this experiment is the 1172 construct (SEQ ID NO: 707), and were administered to the mice at week 1. For T cell depletion studies, alemtuzumab 1 or 5 mg/kg was injected intraperitoneally (IP) at week 2, week 3, or week 4 (e.g., 1, 2, or 3 weeks post-CART123) to determine optimal dosing and timing of T cell ablation. In subsequent studies, rituximab 10 mg/kg was injected IP 4 weeks after CART123/CD20, or 1×10^7 RNA-CART123 was injected intravenously at 5, 9, and 16 days after AML engraftment. Mice were followed by weekly bioluminescent imaging and/or quantitative flow cytometry analyses of blood, spleen, and/or bone marrow.

CART123 P2A CD20 cells = test: Rituximab complement dependent cytotoxicity (15% rabbit complement); type: cell-based
Experimental: The mechanism by which the CART123P2ACD20 cell depletion is mediated was investigated. CART123 P2A CD20 cells were incubated with rituximab at different concentrations 0 μg/ml, 1 μg/ml, 10 μg/ml and 100 μg/ml, in the presence of 15% rabbit complement. […] CART123 P2A CD20 cell depletion is mediated by complement dependent cytotoxicity.

CART123P2A CD20 cells = test: Rituximab-mediated cytotoxicity, T cell depletion; type: cell-based; conditions: 100 ug/ml, 48 hours of incubation
Experimental: Rituximab-mediated cytotoxicity was next assessed for the CART123 P2A CD20 cells. CART123 and CART123 P2A CD20 were incubated with Rituximab at various concentrations, 0 μg/ml, 1 μg/ml, 10 μg/ml and 100 μg/ml. Cells were harvested at 0, 4, 12, and 48 hours, and stained for CD3. The percentage of T cell depletion was computed.

AML290 cells = test: Pediatric patient-derived xenograft model; type: in vivo, mice
Experimental: Alemtuzumab treatment was also examined in a second in vivo model, a pediatric patient-derived xenograft model. In this model, mice were injected with AML290 cells. Six weeks after AML engraftment, the mice were administered saline, untransduced T cells, or CART123 cells (represented at week 0). Alemtuzumab was administered at 5 mg/kg to a subset of the mice receiving CART123 cells at week 4. […] Analysis of AML present in different organs of the xenografts after CART123 dosing was determined by flow cytometry.

Q: What does the source list for CO[C@H]1C[C@@H]2CC[C@@H](C)[C@@](O)(O2)C(=O)C(=O)N2CCCC[C@H]2C(=O)O[C@H]([C@H](C)C[C@@H]2CC[C@@H](OCCO)[C@H](OC)C2)CC(=O)[C@H](C)/C=C(\C)[C@@H](O)[C@@H](OC)C(=O)[C@H](C)C[C@H](C)/C=C/C=C/C=C/1C [RAD001, (1R,9S,12S,15R,16E,18R,19R,21R,23 S,24E,26E,28E,30S,32S,35R)-1,18-dihydroxy-12-{(1R)-2-[(1S,3R,4R)-4-(2-hydroxyethoxy)-3-methoxycyclohexyl]-1-methylethyl}-19,30-dimethoxy-15,17,21,23,29,35-hexamethyl-11,36-dioxa-4-aza-tricyclo[30.3.1.04,9]hexatriaconta-16,24,26,28-tetraene-2,3,10,14,20-pentaone]?
A: concentration of RAD001 ([1]; 24 hours after the final dose): above 10 nM; concentration at 24 h ([1]; NSG, mouse, blood, oral, 24 hours after dosing, 0.3 mg/kg, day 0 and day 14, read-out: RAD001 concentrations in the blood): > 0.01 µM; stability in the blood ([1]; tumor bearing mice): fairly stable in the blood; CART cell proliferation in vivo [2]: enhancement in CART cell proliferation; proliferation of the CAR T cells in vivo (huCAR19 CAR T cells): enhanced proliferation of the CAR T cells; proliferation of huCART19 cells [3]: proliferation was higher than observed without the addition of RAD001; proliferation of CAR-expressing, transduced T cells [4]: enhanced; growth of NALM6-luc tumors (NALM6-luc tumors): did not have an impact on the growth of NALM6-luc tumors

Q: For “blinatumomab: bi-specific anti-CD19/CD3 antibody”, which “share of relapses that are CD19-negative” value (r/r B-ALL) is on record?
A: Its value is “about 30%”.

Q: With Rituximab: anti-CD20 antibody as the molecule, how does the “elimination of CD123-redirected CAR T cells” value [5] read?
A: Its value is “rapidly eliminated T cells while preserving leukemia remission; also recorded: completely eliminated CD123-redirected CAR T cells”.

Q: And the “AML proliferation, antibody alone” value [5]?
A: Its value is “did not inhibit AML proliferation”.

Q: And the “cell depletion with complement” value (CART123 P2A CD20 cells; Rituximab 100 ug/ml)?
A: Its value is “depletion of the majority of CART123 P2A CD20 cells after 4 hours of incubation”.

Q: And the “cell depletion with complement” value (CART123 P2A CD20 cells; rituximab 1 ug/ml or 10 ug/ml)?
A: The value was “depletion of the majority of CART123 P2A CD20 cells after 12 hours of incubation”.

Q: What about the T cell depletion (CART123P2A CD20 cells) of the same molecule?
A: The T cell depletion was “direct cytotoxicity”.

Q: What does the source list for alemtuzumab: anti-CD52 antibody?
A: elimination of CD123-redirected CAR T cells [5]: rapidly eliminated CART123 cells; elimination of CD123-redirected CAR T cells ([5]; listed as Alemtuzumab): completely eliminated CD123-redirected CAR T cells; overall survival by timing of ablation ([5]; alemtuzumab at week 3 or week 4 vs week 2): improved survival; AML proliferation, antibody alone [5]: did not inhibit AML proliferation; AML cells in spleen and bone marrow (flow cytometry) (AML290 cells; AML290): sustained ablation of AML cells in the spleen; tumor progression / remission (AML290 cells; AML290): remained in remission; elimination of CART123 T cells in the peripheral blood (AML290 cells; alemtuzumab 5 mg/kg at week 4): completely eliminate CART123 T cells in the peripheral blood
